“And” between values parts separate entries of the source, which are not always exact repeats. Equal entries are not always repeated.

We go through 2 molecules from patent publication US8697140B2, “Virucidal disinfectant” (priority 2005, dated 2014).

The test system of experiment [1] is poliovirus (polio vaccination strain type I, strain LSc-2ab).
The test system of a further experiment is poliovirus. The settings on record: cited from earlier work.

In the case of `C=O` [formaldehyde solution, formaldehyde], the “Reduction of poliovirus titer” value in experiment [1] is 1.25 log10 steps and 2.13 log10 steps.

For `O=P(O)(O)O` [phosphoric acid], in the experiment with poliovirus, the Effectiveness against poliovirus result is “ineffective”.
